Test results taken from publication PMC5392334, “Discovery and characterization of a novel irreversible EGFR mutants selective and potent kinase inhibitor CHMFL-EGFR-26 with a distinct binding mode” (Oncotarget, 2017).

Experiments:
BaF3-FL-EGFR-del19 = assay: Anti-proliferation, BaF3 isogenic cell lines (CellTiter-Glo); format: cell-based; settings: Mus musculus, 72 hours, triplet testing
BaF3-FL-EGFR-L858R-T790M = assay: as above; format: cell-based; settings: Mus musculus, 72 hours, triplet testing
BaF3-TEL-EGFR-T790M = assay: as above; format: cell-based; settings: Mus musculus, 72 hours, triplet testing
[1] = test system: BaF3-TEL-EGFR-L858R-C797S; assay: as above; format: cell-based; settings: Mus musculus, 72 hours, triplet testing
Parental BaF3 = assay: as above; format: cell-based; settings: Mus musculus; Parental BaF3; 72 hours; triplet testing
[2] = test system: BaF3-FL-EGFR-L858R-T790M-C797S; assay: as above; format: cell-based; settings: Mus musculus, 72 hours, triplet testing
CHO = assay: Anti-proliferation, normal cells (CellTiter-Glo); settings: Cricetulus griseus, 72 h
Procedure: (§2) Cells were grown in 96-well culture plates (2500-3000/well). For adherent cell lines, compounds of various concentrations were added into the plates after cells were cultured for 12 hours. Cell proliferation was determined after treatment with compounds for 72 hours. Cell viability was measured using the CellTiter–Glo assay (Promega, USA) according to the manufacturer's instructions, and luminescence was measured in a multi-label reader (Envision, PerkinElmer, USA). Data were normalized to control groups (DMSO) and represented by the mean of three independent measurements with standard error <20%. GI50 values were calculated using Prism 5.0 (GraphPad Software, San Diego, CA).

H1975 (EGFRL858R/T790M) = assay: Anti-proliferation, NSCLC cell lines (CellTiter-Glo); format: cell-based, human; settings: Homo sapiens, NCI-H1975; H1975 (EGFRL858R/T790M); 72 hours; triplet testing
Procedure: (§1) The human cancer cell lines H1975, HCC827, H2122, CHO, CHL and H1355 were purchased from the American Type Culture Collection (ATCC) (Manassas, VA, USA). PC9 cell line was purchased from the Sigma-Aldrich (St. Louis, MO, USA). A549, H3255 were purchased from Cobioer Biosciences CO., LTD (Nanjing, China). […] A549 and H1355 were cultured in F-12K Nutrient Mixture (kaighn's Modification) (Gibco, USA) with 10% FBS and supplemented with 2% L-glutamine and 1% pen/strep. H3255 was cultured in BEGM media (LONZA, USA) with 10% FBS and supplemented with 2% L-glutamine and 1% pen/strep.

BaF3-TEL-EGFR-L858R = assay: Anti-proliferation, BaF3 isogenic cell lines (CellTiter-Glo); format: cell-based; settings: Mus musculus, 72 hours, triplet testing
BaF3-TEL-EGFR-C797S = assay: as above; format: cell-based; settings: Mus musculus, 72 hours, triplet testing
CHL = assay: Anti-proliferation, normal cells (CellTiter-Glo); settings: Cricetulus griseus, 72 h
Procedure: as §2

[3] = test system: BaF3-FL-EGFR-del19-T790M-C797S; assay: Anti-proliferation, BaF3 isogenic cell lines (CellTiter-Glo); format: cell-based; settings: Mus musculus, 72 hours, triplet testing
[4] = test system: BaF3-TEL-EGFR-T790M-C797S; assay: as above; format: cell-based; settings: Mus musculus, 72 hours, triplet testing
BaF3-FL-EGFR-del19-T790M = assay: as above; format: cell-based; settings: Mus musculus, 72 hours, triplet testing
BaF3-TEL-EGFR = assay: as above; format: cell-based; settings: Mus musculus, 72 hours, triplet testing
PC-9 (EGFR del19) = assay: Anti-proliferation, NSCLC cell lines (CellTiter-Glo); format: cell-based; settings: Homo sapiens, 72 hours, triplet testing
Procedure: as §1

H1355(EGFR wt) = assay: as above; format: cell-based; settings: Homo sapiens, NCI-H1355, 72 hours, triplet testing
Procedure: as §1

H1703 (EGFR wt) = assay: as above; format: cell-based; settings: Homo sapiens, NCI-H1703, 72 hours, triplet testing
Procedure: as §1

H2122 (EGFR wt) = assay: as above; format: cell-based; settings: Homo sapiens, NCI-H2122, 72 hours, triplet testing
Procedure: as §1

HCC827 (EGFR del19) = assay: as above; format: cell-based; settings: Homo sapiens, 72 hours, triplet testing
Procedure: as §1

H3255 (EGFRL858R) = assay: as above; format: cell-based; settings: Homo sapiens, NCI-H3255, 72 hours, triplet testing
Procedure: as §1

A549 (EGFR wt) = assay: as above; format: cell-based; settings: Homo sapiens, 72 hours, triplet testing
Procedure: as §1

BaF3-IGF1R = assay: Anti-proliferative effects, IGF1R transformed isogenic BaF3 cells; format: cell-based; settings: Mus musculus, read-out: IC50 (anti-proliferative; GI50)
[5] = quoted in discussion for comparison; species, route and reference not given; cited from earlier work
MNK2 kinase = settings: cited from earlier work
BaF3-INSR = assay: Anti-proliferative effects, INSR transformed isogenic BaF3 cells; format: cell-based; settings: Mus musculus, read-out: IC50 (anti-proliferative; GI50)
[6] = test system: EGFR Y1068 phosphorylation in BaF3-TEL-EGFR cells; assay: EGFR Y1068 auto-phosphorylation in transformed BaF3 cells; settings: Mus musculus, BaF3, 4 h, read-out: EC50, phosphorylation of EGFR Y1068

In the case of `CCC(=O)N1CCC[C@@H](n2nc(-c3ccc(OCc4cccc(C)n4)c(Cl)c3)c3c(N)ncnc32)C1` [CHMFL-EGFR-26R], the GI50 (BaF3-FL-EGFR-del19) is reported as over 10000 nM, the GI50 (BaF3-FL-EGFR-L858R-T790M) is reported as over 10000 nM and the GI50 (BaF3-TEL-EGFR-T790M) is reported as over 10000 nM. For the same compound, the GI50 [1] was over 10000 nM, the GI50 (Parental BaF3) was over 10000 nM and the GI50 [2] was over 10000 nM. For the same compound, the GI50 (CHO) was over 10000 nM, the GI50 (H1975 (EGFRL858R/T790M)) was over 10000 nM and the GI50 (BaF3-TEL-EGFR-L858R) was over 10000 nM. The GI50 (BaF3-TEL-EGFR-C797S) was 6600 nM, the GI50 (CHL) was over 10000 nM and the GI50 [3] was 7300 nM. For the same compound, the GI50 [4] was over 10000 nM, the GI50 (BaF3-FL-EGFR-del19-T790M) was 7100 nM and the GI50 (BaF3-TEL-EGFR) was over 10000 nM. For the same compound, the GI50 (PC-9 (EGFR del19)) was over 10000 nM, the GI50 (H1355(EGFR wt)) was over 10000 nM and the GI50 (H1703 (EGFR wt)) was 9400 nM. The GI50 (H2122 (EGFR wt)) was over 10000 nM, the GI50 (HCC827 (EGFR del19)) was over 10000 nM and the GI50 (H3255 (EGFRL858R)) was over 10000 nM. For the same compound, the GI50 (A549 (EGFR wt)) was over 10000 nM.
`C=CC(=O)Nc1cc(Nc2nccc(-c3cn(C)c4ccccc34)n2)c(OC)cc1N(C)CCN(C)C` [AZD9291, reference compound] gave an IC50 (BaF3-IGF1R) of 560 nM, a GI50 (BaF3-FL-EGFR-del19) of 1 nM and a GI50 (BaF3-FL-EGFR-L858R-T790M) of under 0.3 nM. For the same compound, the T1/2 [5] was 3.1 h, the GI50 (BaF3-TEL-EGFR-T790M) was 13 nM and the GI50 [1] was 590 nM. For the same compound, the GI50 (Parental BaF3) was 1500 nM, the GI50 [2] was 310 nM and the GI50 (CHO) was 4200 nM. The GI50 (H1975 (EGFRL858R/T790M)) was 52 nM, the IC50 (MNK2 kinase) was 95 nM and the GI50 (BaF3-TEL-EGFR-L858R) was under 0.3 nM. It also gave an IC50 (BaF3-INSR) of 500 nM, a GI50 (BaF3-TEL-EGFR-C797S) of 590 nM and a GI50 (CHL) of 2900 nM. For the same compound, the GI50 [3] was 200 nM, the GI50 [4] was 550 nM and the GI50 (BaF3-FL-EGFR-del19-T790M) was under 0.3 nM. For the same compound, the GI50 (BaF3-TEL-EGFR) was 300 nM, the EC50 [6] was 63 nM and the GI50 (PC-9 (EGFR del19)) was 2 nM. It also gave a GI50 (H1355(EGFR wt)) of 3000 nM, a GI50 (H1703 (EGFR wt)) of 3500 nM and a GI50 (H2122 (EGFR wt)) of 1200 nM. The GI50 (HCC827 (EGFR del19)) was 1 nM, the GI50 (H3255 (EGFRL858R)) was 33 nM and the GI50 (A549 (EGFR wt)) was 3500 nM.
